From patent publication US7932287B2, “Therapeutic compositions and uses” (ChemGenes Corporation, priority 2004, dated 2011)
Read-outs that look alike come from different tables or passages of the source.

Key:
[1] = system: child diagnosed with Late Infantile Neuronal Ceroid Lipofuscinosis (LINCL); experiment: Physical condition of the patient after 9 weeks of TML therapy (parents' and physicians' observations); format: in vivo, human; conditions: TML 5 mg-30 mg per day after Jan. 29, 2004, through January 2005
[2] = system: child diagnosed with Late Infantile Neuronal Ceroid Lipofuscinosis (LINCL); experiment: as above; format: in vivo, human
Description: (§1) Child had been taking the supplements/vitamins listed in Appendix B for about three years before the start of TML therapy. In addition, they had been taking clonazepam (5-(2-chlorophenyl)-1,3-dihydro7-nitro-2H-1,4-benzodiazepin-2-one) which is sold under the trade name Klonopin by F. Hoffmann-La Roche Ltd. (Basel, Switzerland) for control of constant Myoclonic seizures for about the same time according to the following daily dosage: (a) at waking: ½ of one 0.5 mg tablet, (b) Every four hours after waking, ¼ of one 0.5 mg tablet, (c) At bedtime: ½ of one 0.5 mg tablet. They also took one (1) 25 mg capsule of nitrofurantoin macrocrystals (sold under the name Macrodantin by Procter & Gamble Pharmaceuticals, Cincinnati Ohio) once per day.
(§2) “Baseline” blood work was done after an overnight fast on the morning of Nov. 19, 2003. Child received their usual supplements/vitamins, clonazepam, and macrodantin. TML, as synthesized in Example 1 was given to the patient (5 mg of TML per day for a […], ending Dec. 28, 2003). Between Dec. 28, 2003 and Jan. 24, 2004 we gave an alternating daily dose of 5 mg/day and 10 mg/day. On Jan. 24, 2004 and till the “new” blood work was done on Jan. 29, 2004, the patient received 10 mg/day by usually taking 5 mg of TML with breakfast and 5 mg of TML with dinner. They received 5 mg per dose during the duration of the experiment. In other words, they received TML once per day on days that they received 5 mg, and TML twice per day on days that they received 10 mg of TML. The TML was administered in powder form intermixed with their food.
Child's General Physical Condition Before the Start of TML Therapy (Based on Parents' Observations):
(The Physical Appearance of the Patient After the Stated 9 Weeks of TML Therapy.)

[3] = system: L-carnitine biosynthesis; conditions: rats; increased amount of the intermediate in the bloodstream; cited from earlier work
[4] = system: L-carnitine biosynthesis; conditions: human infants & adults; increased amount of the intermediate in the bloodstream; cited from earlier work
[5] = system: child diagnosed with Late Infantile Neuronal Ceroid Lipofuscinosis (LINCL); experiment: Blood work (standard clinical blood tests) before and after TML therapy; format: in vivo, human; parameters: Glutamine / Taurine / Carnitine, Total / Carnitine, Esthers / Alanine / Carbon Dioxide / BUN / Hgb / HCT / RDW / ABS Lymphocytes / Glycine: unit not given here
Description: as §1, §2
The child's bloodwork results are in table 1, below and the empirical nature of the child's improvement is evidenced by the follow up blood results. These blood tests were standard clinical tests carried out at Children's Hospital of Pittsburgh.

[6] = system: child who was afflicted with LINCL; experiment: Exogenous L-carnitine given to the LINCL child for over three years; format: in vivo, human
Description: as §1
In summary, L-carnitine plays a key and critical role in enhancing fat metabolism. Reports attest to the fact that L-carnitine works by transporting fatty acids to be burned for fuel, increasing both energy supply and lean muscle mass. […] This contrasts with the apparent need in Late Infantile Neuronal Ceroid Lipofuscinosis (LINCL-one form of Batten Disease) of the correct operation of the endogenous production of L-carnitine. […] This also was not observed by the parents of the child who was afflicted with LINCL (discussed later).

[7] = system: dogs with Batten Disease (Juvenile Neuronal Ceroid Lipofuscinosis); conditions: cited from earlier work
[8] = Jan. 29, 2004, after TML, baseline high
[9] = Jan. 29, 2004, after TML, baseline normal
[10] = exogenous carnitine, dogs with Juvenile Neuronal Ceroid Lipofuscinosis

With C[N+](C)(C)CCCCC(N)C(=O)[O-] [TML, N-6-trimethyl-L-lysine] the “Condition on continued TML” value [1] was “remained stable”, the “Eye movement and pupillary response” value ([2]; after 9 weeks of TML therapy) was “more eye movement and even the emergence of “purposeful” eye movement and a faster pupillary response” and the Hypertonicity of legs ([2]; after 9 weeks of TML therapy) was “still “hypertonic””. For the same compound, the Swallowing ([2]; after 9 weeks of TML therapy) was “very much improved, almost normal”, the “Hypertonicity of arms, hands and fingers” value ([2]; after 9 weeks of TML therapy, also observed by a physiatrist and neurologist) was “notable reduction” and the “Cyanosis symptoms in the hands and feet” value ([2]; after 9 weeks of TML therapy, before: chronically cyanotic) was “virtually no cyanosis”. For the same compound, the Bowel movements ([2]; after 9 weeks of TML therapy, before: two or three days without bowel movement, enema needed) was “moving their bowels on their own one to three times a day”, the “Insomnia / sleeping through the night” value ([2]; after approximately the first two weeks of TML, before: sleep interrupted 1 to 3 times per night) was “The insomnia was gone” and the “Hyperammonemic condition (blue hands and feet)” value ([2]; after the administration of TML) was “amelioration of the hyperammonemic condition”. The “Metabolic and outward, observable changes to their condition” value ([2]; exogenous TML to the LINCL child) was “yielded significant metabolic and outward, observable changes to their condition”, the “Full body jerk (Myoclonus) elicited by touch” value ([2]; neurologist's office visit Jan. 30, 2004) was “no longer elicited a full body jerk” and the Myoclonic seizures ([2]; neurologist's office visit Jan. 30, 2004, clonazepam continued) was “markedly reduced in severity and in number”. The “Increase of the production of L-carnitine” value (“Increase” for short) [3] was 100 fold, the “Increase” value [4] was 3 fold and the Hgb ([5]; Jan. 29, 2004, after 9 weeks of TML 5-10 mg/day in food, overnight fast, baseline Nov. 19, 2003: 14.4 (high)) was 14. For the same compound, the BUN ([5]; Jan. 29, 2004, after 9 weeks of TML 5-10 mg/day, baseline 2 (low), 6 is norm) was 5, the “ABS Lymphocytes” value ([5]; Jan. 29, 2004, after 9 weeks of TML 5-10 mg/day, baseline 2.2 (low)) was 2.5 and the “Carnitine, Esthers” value ([5]; Jan. 29, 2004, after 9 weeks of TML 5-10 mg/day, baseline 7 (normal)) was 10. For the same compound, the RDW ([5]; Jan. 29, 2004, after 9 weeks of TML 5-10 mg/day, baseline 11.5) was 12.3, the Taurine ([5]; Jan. 29, 2004, after 9 weeks of TML 5-10 mg/day, baseline 24 (high)) was 19 and the “Carbon Dioxide” value ([5]; Jan. 29, 2004, after 9 weeks of TML 5-10 mg/day, baseline 32 (high)) was 22. The “Carnitine, Total” value ([5]; Jan. 29, 2004, after 9 weeks of TML 5-10 mg/day, baseline 40 (normal)) was 43, the HCT ([5]; Jan. 29, 2004, after 9 weeks of TML 5-10 mg/day, baseline 42 (high)) was 40.3 and the Glycine ([5]; Jan. 29, 2004, after 9 weeks of TML 5-10 mg/day, baseline 50 (high)) was 25. The AST ([5]; Jan. 29, 2004, after 9 weeks of TML 5-10 mg/day, baseline 60 (high), 40 is norm) was 50, the Alanine ([5]; Jan. 29, 2004, after 9 weeks of TML 5-10 mg/day, baseline 87 (high)) was 47 and the Glutamine ([5]; Jan. 29, 2004, after 9 weeks of TML 5-10 mg/day, baseline 99 (high)) was 70. For the same compound, the Platelets ([5]; Jan. 29, 2004, after 9 weeks of TML 5-10 mg/day, baseline 586 (high), 369 norm) was 461, the “Alanine, Clinical Range” value [5, 8] was “normal” and the “Carbon Dioxide, Clinical Range” value [5, 8] was “normal”. For the same compound, the “Glutamine, Clinical Range” value [5, 8] was “normal”, the “Glycine, Clinical Range” value [5, 8] was “normal” and the “HCT, Clinical Range” value [5, 8] was “normal”. The “Hgb, Clinical Range” value [5, 8] was “normal”, the “RDW, Clinical Range” value [5, 8] was “normal” and the “Taurine, Clinical Range” value [5, 8] was “normal”. For the same compound, the “AST, Clinical Range” value ([5]; Jan. 29, 2004, after TML, baseline high, 40 is norm) was “high”, the “Platelets, Clinical Range” value ([5]; Jan. 29, 2004, after TML, baseline high, 369 norm) was “high” and the “ABS Lymphocytes, Clinical Range” value ([5]; Jan. 29, 2004, after TML, baseline low) was “normal”. For the same compound, the “BUN, Clinical Range” value ([5]; Jan. 29, 2004, after TML, baseline low, 6 is norm) was “(low)”, the “Carnitine, Esthers, Clinical Range” value [5, 9] was “normal” and the “Carnitine, Total, Clinical Range” value [5, 9] was “normal”. For the same compound, the “Elevation of serum amino acids (examining physician's comment)” value ([5]; Jan. 29, 2004, after TML, baseline: alanine elevated, glutamine increased) was “No significant elevation of serum Amino Acids”.

In the case of C[N+](C)(C)CCCC(=O)[O-] [g-butyrobetaine, 4-N-trimethylaminobutyrate, reference compound], the “Increase” value [3] is listed as 100 fold and the “Increase” value [4] is listed as 3 fold.

In the case of C[N+](C)(C)C[C@H](O)CC(=O)[O-] [L-carnitine, L-b-hydroxy-g-n-trimethylaminobutyric acid], the “Metabolic changes or marked outward observations of their condition” value [6] is listed as “without significant metabolic changes or marked outward observations of their condition”, the “Need for endogenous production of L-carnitine” value ([7]; exogenous L-Carnitine to dogs with Batten Disease) is listed as “not ameliorated” and the “Function of the dogs” value [7, 10] is listed as “more functional”. The “Life span versus untreated dogs (lived longer)” value [7, 10] was 10%.
